Results as given in the supplement of paper PMC10307832.

How the values were obtained:
Test in all cases: relative viability (nuclei count vs DMSO), 5 days (fraction); higher = more cells survive
Idelalisib + Crizotinib = compound: CC[C@H](Nc1ncnc2[nH]cnc12)c1nc2cccc(F)c2c(=O)n1-c1ccccc1 [Idelalisib] + C[C@@H](Oc1cc(-c2cnn(C3CCNCC3)c2)cnc1N)c1c(Cl)ccc(F)c1Cl [Crizotinib] (partner 1 µM)
How it was run: (§1)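 Nuclei were stained with Hoechst during a one-step fixation (final 0.05% Triton X-100, 1% formaldehyde, 1 ug/ml Hoechst) carried out 5 days after dosing, then counted on 4× images. The cells, lung cancer lines in 1536-well plates, had been dosed by pin tool the day after seeding with one drug alone or a fixed anchor-drug dose plus five library-drug doses (not always all listed) in √10 steps. Relative viability is the nuclei count in treated wells divided by that in vehicle wells, and each value is the median of duplicate plates.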

Idelalisib + Tozasertib = compound: CC[C@H](Nc1ncnc2[nH]cnc12)c1nc2cccc(F)c2c(=O)n1-c1ccccc1 [Idelalisib] + Cc1cc(Nc2cc(N3CCN(C)CC3)nc(Sc3ccc(NC(=O)C4CC4)cc3)n2)n[nH]1 [Tozasertib] (partner 0.1 µM)
How it was run: as §1

Idelalisib + Lapatinib = compound: CC[C@H](Nc1ncnc2[nH]cnc12)c1nc2cccc(F)c2c(=O)n1-c1ccccc1 [Idelalisib] + CS(=O)(=O)CCNCc1ccc(-c2ccc3ncnc(Nc4ccc(OCc5cccc(F)c5)c(Cl)c4)c3c2)o1 [Lapatinib] (partner 2 µM)
How it was run: as §1

Idelalisib + Alpelisib = compound: CC[C@H](Nc1ncnc2[nH]cnc12)c1nc2cccc(F)c2c(=O)n1-c1ccccc1 [Idelalisib] + Cc1nc(NC(=O)N2CCC[C@H]2C(N)=O)sc1-c1ccnc(C(C)(C)C(F)(F)F)c1 [Alpelisib] (partner 2 µM)
How it was run: as §1

Cell Line	relative viability (Idelalisib + Crizotinib; first compound 0.04 µM)	relative viability (Idelalisib + Crizotinib; first compound 0.1265 µM)	relative viability (Idelalisib + Crizotinib; first compound 0.4 µM)	relative viability (Idelalisib + Crizotinib; first compound 1.265 µM)	relative viability (Idelalisib + Crizotinib; first compound 4 µM)	relative viability (Idelalisib + Tozasertib; first compound 0.04 µM)	relative viability (Idelalisib + Tozasertib; first compound 0.1265 µM)	relative viability (Idelalisib + Tozasertib; first compound 0.4 µM)	relative viability (Idelalisib + Tozasertib; first compound 1.265 µM)	relative viability (Idelalisib + Tozasertib; first compound 4 µM)	relative viability (Idelalisib + Lapatinib; first compound 0.04 µM)	relative viability (Idelalisib + Lapatinib; first compound 0.1265 µM)	relative viability (Idelalisib + Lapatinib; first compound 0.4 µM)	relative viability (Idelalisib + Lapatinib; first compound 1.265 µM)	relative viability (Idelalisib + Lapatinib; first compound 4 µM)	relative viability (Idelalisib + Alpelisib; first compound 0.04 µM)	relative viability (Idelalisib + Alpelisib; first compound 0.1265 µM)	relative viability (Idelalisib + Alpelisib; first compound 0.4 µM)	relative viability (Idelalisib + Alpelisib; first compound 1.265 µM)	relative viability (Idelalisib + Alpelisib; first compound 4 µM)
NCI-H3122	0.296	0.28	0.3	0.283	0.289	0.377	0.372	0.41	0.4	0.399	1.06	0.981	1.05	1.03	1.05	0.709	0.782	0.685	0.777	0.631
NCI-H838	0.791	0.906	0.724	0.8	0.695	0.268	0.288	0.282	0.258	0.257	0.994	1.12	0.707	0.938	0.767	0.902	1.02	0.914	0.957	0.818
NCI-H1755	0.812	0.878	0.832	0.745	0.671	0.541	0.616	0.483	0.488	0.489	1.11	0.999	0.966	1.06	0.97	0.611	0.9	0.827	0.784	0.735
HCC-15	0.809	0.842	0.72	0.885	0.762	0.556	0.419	0.356	0.384	0.31	0.828	0.847	0.818	0.983	0.894	1.07	0.884	0.794	0.912	0.83
NCI-H2087	0.894	0.911	0.901	1.1	0.93	0.249	0.272	0.212	0.216	0.235	1.15	1.06	1.13	1.11	1.18	1.03	1.19	1.11	1.09	0.651
LK-2	0.264	0.205	–	0.215	0.235	0.178	0.165	–	0.18	0.164	1.03	0.98	0.63	0.978	0.965	1.16	1.17	–	1.09	1.11
HCC-78	0.322	0.354	0.296	0.31	0.274	0.314	0.389	0.392	0.388	0.295	0.709	0.81	0.577	0.916	0.754	0.269	0.291	0.246	0.287	0.207
NCI-H1666	0.953	1.03	0.809	0.964	0.721	0.662	0.594	0.78	0.639	0.57	0.549	0.641	0.419	0.505	0.456	1.03	0.909	0.89	0.888	0.747
EKVX	0.83	0.897	0.633	0.753	0.752	0.411	0.419	0.336	0.342	0.317	0.21	0.234	0.184	0.201	0.186	0.835	0.896	0.728	0.625	0.53
COR-L 105	0.702	0.948	0.709	0.778	0.775	0.354	0.321	0.312	0.334	0.357	0.385	0.353	0.294	0.374	0.362	1.05	1.08	0.855	0.83	0.586
NCI-H322M	1	0.842	0.792	0.687	0.809	0.516	0.532	0.466	0.44	0.453	0.612	0.62	0.521	0.53	0.502	0.826	0.764	0.632	0.62	0.716
HARA	1.2	0.988	0.894	0.988	0.991	0.0983	0.113	0.121	0.0975	0.101	0.891	0.982	0.651	0.844	0.656	1.03	0.843	0.855	0.754	0.751
NCI-H2023	0.63	0.662	0.487	0.579	0.54	0.355	0.284	0.363	0.321	0.253	0.837	1.01	0.525	0.775	0.724	0.693	0.564	0.524	0.494	0.313
NCI-H1437	0.894	0.992	0.851	0.968	1.12	0.333	0.43	0.411	0.384	0.397	0.764	0.909	0.734	0.929	0.672	0.947	1.07	0.892	0.84	0.748
BEN	0.875	1.06	0.751	0.886	0.661	0.479	0.562	0.542	0.488	0.413	0.88	0.635	0.613	0.73	0.602	1.05	1.13	0.853	1.04	0.853
LXF-289	0.839	0.818	0.778	0.909	0.825	0.259	0.189	0.195	0.14	0.235	0.945	0.901	0.906	0.96	0.943	0.997	1.05	0.996	1.01	0.993

Cell Line	relative viability (Idelalisib + Crizotinib; first compound 0.04 µM)	relative viability (Idelalisib + Crizotinib; first compound 0.1265 µM)	relative viability (Idelalisib + Crizotinib; first compound 0.4 µM)	relative viability (Idelalisib + Crizotinib; first compound 1.265 µM)	relative viability (Idelalisib + Crizotinib; first compound 4 µM)	relative viability (Idelalisib + Tozasertib; first compound 0.04 µM)	relative viability (Idelalisib + Tozasertib; first compound 0.1265 µM)	relative viability (Idelalisib + Tozasertib; first compound 0.4 µM)	relative viability (Idelalisib + Tozasertib; first compound 1.265 µM)	relative viability (Idelalisib + Tozasertib; first compound 4 µM)	relative viability (Idelalisib + Lapatinib; first compound 0.04 µM)	relative viability (Idelalisib + Lapatinib; first compound 0.1265 µM)	relative viability (Idelalisib + Lapatinib; first compound 0.4 µM)	relative viability (Idelalisib + Lapatinib; first compound 1.265 µM)	relative viability (Idelalisib + Lapatinib; first compound 4 µM)	relative viability (Idelalisib + Alpelisib; first compound 0.04 µM)	relative viability (Idelalisib + Alpelisib; first compound 0.1265 µM)	relative viability (Idelalisib + Alpelisib; first compound 0.4 µM)	relative viability (Idelalisib + Alpelisib; first compound 1.265 µM)	relative viability (Idelalisib + Alpelisib; first compound 4 µM)
NCI-H358	0.646	0.579	0.496	0.549	0.516	0.106	0.0937	0.113	0.088	0.116	0.468	0.469	0.37	0.488	0.498	1.03	0.894	0.857	0.94	0.719
NCI-H1993	0.873	0.893	0.879	0.834	0.73	0.628	0.54	0.519	0.583	0.574	0.816	0.887	0.76	0.802	0.84	0.691	0.592	0.679	0.665	0.667
NCI-H727	0.81	0.798	0.76	1	0.797	0.669	0.533	0.713	0.652	0.559	0.814	1.09	0.751	1.21	0.719	0.643	0.69	0.499	0.588	0.622
LOU-NH91	0.791	0.711	0.677	0.68	0.727	0.749	0.641	0.651	0.557	0.708	0.82	0.737	0.67	0.725	0.75	0.762	0.705	0.634	0.59	0.641
NCI-H1975	1.08	0.944	0.817	1	0.81	0.7	0.794	0.671	0.718	0.565	0.966	0.99	0.836	0.889	0.61	0.681	0.609	0.552	0.613	0.4
PC-3 [JPC-3]	1	1.04	0.94	0.98	0.881	0.966	0.913	0.853	0.901	0.715	0.455	0.49	0.439	0.44	0.36	1.11	1.02	0.981	0.963	0.855
NCI-H2126	1.04	1	0.967	1.03	1.02	0.838	0.905	0.765	0.813	0.626	0.808	0.785	0.634	0.764	0.728	0.739	0.739	0.611	0.675	0.6
LU99A	0.625	0.638	0.578	0.614	0.643	0.271	0.292	0.278	0.306	0.318	0.923	0.912	0.862	1.14	1.04	0.665	0.479	0.36	0.554	0.45
NCI-H23	0.723	0.56	0.277	0.533	0.387	0.39	0.528	0.363	–	0.334	1.04	1.06	0.872	1.08	0.893	0.737	0.635	0.357	0.727	0.515
PC-14	0.821	0.947	0.882	0.905	0.908	0.638	0.603	0.557	0.6	0.553	0.329	0.299	0.309	0.306	0.252	0.992	0.882	0.874	0.983	0.9
HCC-44	0.822	0.857	0.819	0.948	0.85	0.879	1.02	0.762	0.866	0.756	1.02	1.01	1	1.07	1.14	0.831	0.812	0.602	0.577	0.638
A-427	1.05	1.04	0.789	1.05	0.755	0.222	0.222	0.219	0.196	0.181	1.11	1.06	1.04	1.07	1.04	1.11	1.05	0.945	1.15	1.06
NCI-H596	1.02	0.902	0.886	0.923	0.948	0.818	1.01	0.73	0.855	0.815	1.04	1.13	0.895	1.16	0.934	0.597	0.397	0.483	0.467	0.364
RERF-LC-KJ	0.94	0.845	0.847	0.785	0.861	0.539	0.502	0.47	0.474	0.449	0.763	0.872	0.814	0.83	0.789	0.735	0.71	0.785	0.77	0.645
NCI-H647	1.43	1.03	0.815	0.859	0.7	0.313	0.394	–	0.0094	0.109	1.13	1.27	0.834	0.95	0.546	1.27	1.17	0.845	1.12	0.68
NCI-H1734	0.789	0.639	0.604	0.685	0.527	0.264	0.246	0.253	0.254	0.246	0.93	1.03	0.989	0.958	0.98	0.695	0.7	0.574	0.592	0.443
